Results: patent US10597388B2, “Pyridazinone herbicides” (FMC CORPORATION, priority 2014, dated 2020)

What was measured:
Type in all cases: in vivo
[1] = tested on: foxtail, giant (giant foxtail, Setaria faberii); assay: Test A greenhouse herbicide test, pre- and postemergence
Description: (§1) Seeds of plant species selected from barnyardgrass (Echinochloa crus-galli), kochia (Kochia scoparia), ragweed (common ragweed, Ambrosia elatior), ryegrass, Italian (Italian ryegrass, Lolium multiflorum), crabgrass, large (large crabgrass, Digitaria sanguinalis), foxtail, giant (giant foxtail, Setaria faberii), momingglory (Ipomoea spp.), pigweed (Amaranthus retroflexus), velvetleaf (Abutilon theophrasti), wheat (Triticum aestivum), and corn (Zea mays) were planted into a blend of loam soil and sand and treated preemergence with a directed soil spray using test chemicals formulated in a non-phytotoxic solvent mixture which included a surfactant.
(§2) At the same time, plants selected from these crop and weed species and also blackgrass (Alopecurus myosuroides), and galium (catchweed bedstraw, Galium aparine) were planted in pots containing the same blend of loam soil and sand and treated with postemergence applications of test chemicals formulated in the same manner. Plants ranged in height from 2 to 10 cm and were in the one- to two-leaf stage for the postemergence treatment. Treated plants and untreated controls were maintained in a greenhouse for approximately 10 d, after which time all treated plants were compared to untreated controls and visually evaluated for injury. Plant response ratings, summarized in Table A, are based on a 0 to 100 scale where 0 is no effect and 100 is complete control. A dash (-) response means no test result.

[2] = tested on: ragweed (common ragweed, Ambrosia elatior); assay: as above
Description: as §1, §2

kochia (Kochia scoparia) = assay: as above
Description: as §1, §2

corn (Zea mays) = assay: as above; conditions: Postemergence; for Corn plant response rating: 0 to 100 scale, 0 is no effect, 100 is complete control
Description: as §1, §2

[3] = tested on: wheat (Triticum aestivum); assay: as above; conditions: Postemergence; for Wheat plant response rating: 0 to 100 scale, 0 is no effect, 100 is complete control
Description: as §1, §2

[4] = tested on: pigweed (Amaranthus retroflexus); assay: as above
Description: as §1, §2

[5] = tested on: ryegrass, Italian (Italian ryegrass, Lolium multiflorum); assay: as above
Description: as §1, §2

[6] = tested on: barnyardgrass (Echinochloa crus-galli); assay: as above
Description: as §1, §2

[7] = tested on: galium (catchweed bedstraw, Galium aparine); assay: Test A greenhouse herbicide test, postemergence; conditions: for Galium plant response rating: 0 to 100 scale, 0 is no effect, 100 is complete control
Description: as §2

[8] = tested on: blackgrass (Alopecurus myosuroides); assay: Test A greenhouse herbicide test, postemergence; conditions: for Blackgrass plant response rating: 0 to 100 scale, 0 is no effect, 100 is complete control
Description: as §2

[9] = Postemergence, 125 g ai/ha, 0 to 100 scale where 0 is no effect and 100 is complete control
[10] = Postemergence, 500 g ai/ha, 0 to 100 scale, 0 is no effect, 100 is complete control
[11] = Preemergence, 125 g ai/ha, 0 to 100 scale where 0 is no effect and 100 is complete control
[12] = Preemergence, 500 g ai/ha, 0 to 100 scale where 0 is no effect and 100 is complete control
[13] = 125 g ai/ha, 0 to 100 scale where 0 is no effect and 100 is complete control
[14] = Preemergence, 500 g ai/ha, 0 to 100 scale, 0 no effect, 100 complete control
[15] = Postemergence, 500 g ai/ha, visual rating after approx. 10 d, 0 to 100 scale (0 no effect, 100 complete control)
[16] = 500 g ai/ha, visual rating after approx. 10 d, 0 to 100 scale (0 no effect, 100 complete control)
[17] = Postemergence, 125 g ai/ha, visual rating after approx. 10 d, 0 to 100 scale (0 no effect, 100 complete control)
[18] = 125 g ai/ha, visual rating after approx. 10 d, 0 to 100 scale (0 no effect, 100 complete control)

SMILES	Plant response rating, Foxtail, Giant [1, 9]	Foxtail, Giant plant response rating [1, 10]	Foxtail, Giant plant response rating [1, 11]	Plant response rating, Ragweed [2, 9]	Ragweed plant response rating [2, 10]	Ragweed plant response rating [2, 11]	Plant response rating, Kochia (kochia (Kochia scoparia); [9])	Kochia plant response rating (kochia (Kochia scoparia); [10])	Kochia plant response rating (kochia (Kochia scoparia); [11])	Plant response rating, Corn (corn (Zea mays); [13])	Corn plant response rating (corn (Zea mays); 500 g ai/ha)	Plant response rating, Wheat [3, 13]	Wheat plant response rating ([3]; 500 g ai/ha)	Plant response rating, Pigweed [4, 9]	Pigweed plant response rating [4, 10]	Pigweed plant response rating [4, 11]	Plant response rating, Ryegrass, Italian [5, 9]	Ryegrass, Italian plant response rating [5, 10]	Ryegrass, Italian plant response rating [5, 11]	Barnyardgrass plant response rating [6, 11]	also measured
Cc1nn(C)c(=O)c(-c2cccc3ccc(I)cc23)c1O [Compound 70]	30	25	0	40	70	70	50	60	10	0	0	0	0	80	80	60	60	80	60	0	Plant response rating, Foxtail, Giant [1, 12]: 30; Plant response rating, Ragweed [2, 12]: 80; Plant response rating, Kochia (kochia (Kochia scoparia); [12]): 40; Plant response rating, Pigweed [4, 12]: 100; Plant response rating, Ryegrass, Italian [5, 12]: 90; Plant response rating, Barnyardgrass [6, 9]: 0; Barnyardgrass plant response rating [6, 10]: 10; Plant response rating, Barnyardgrass [6, 14]: 30; Plant response rating, Galium [7, 13]: 70; Galium plant response rating ([7]; 500 g ai/ha): 90; Plant response rating, Blackgrass [8, 13]: 10; Blackgrass plant response rating ([8]; 500 g ai/ha): 30
Cc1sc2ccc(C(F)(F)F)cc2c1-c1c(O)c(Cl)nn(C)c1=O [Compound 140]	40	–	50	90	–	–	30	–	0	20	–	20	–	70	–	50	70	–	–	50	Plant response rating, Foxtail, Giant [1, 15]: 90; Plant response rating, Foxtail, Giant [1, 12]: 80; Plant response rating, Ragweed [2, 15]: 100; Plant response rating, Ragweed [2, 12]: 90; Plant response rating, Kochia (kochia (Kochia scoparia); [15]): 70; Plant response rating, Kochia (kochia (Kochia scoparia); [12]): 30; Plant response rating, Corn (corn (Zea mays); [16]): 30; Plant response rating, Wheat [3, 16]: 70; Plant response rating, Pigweed [4, 15]: 90; Plant response rating, Pigweed [4, 12]: 100; Plant response rating, Ryegrass, Italian [5, 15]: 100; Plant response rating, Ryegrass, Italian [5, 12]: 90; Plant response rating, Barnyardgrass [6, 9]: 50; Plant response rating, Barnyardgrass [6, 15]: 90; Plant response rating, Barnyardgrass [6, 12]: 70; Plant response rating, Galium [7, 13]: 70; Plant response rating, Galium [7, 16]: 90; Plant response rating, Blackgrass [8, 13]: 30; Plant response rating, Blackgrass [8, 16]: 50
CCc1ccc2ccccc2c1-c1c(OC(=O)C2CC2)c(C)nn(C)c1=O [Compound 38]	–	50	0	–	70	0	–	80	40	–	10	10	20	–	50	0	0	50	40	0	Plant response rating, Foxtail, Giant [1, 17]: 0; Plant response rating, Foxtail, Giant [1, 14]: 40; Plant response rating, Ragweed [2, 17]: 40; Plant response rating, Ragweed [2, 14]: 70; Plant response rating, Kochia (kochia (Kochia scoparia); [17]): 30; Plant response rating, Kochia (kochia (Kochia scoparia); [14]): 40; Plant response rating, Corn (corn (Zea mays); [18]): 0; Plant response rating, Pigweed [4, 17]: 50; Plant response rating, Pigweed [4, 14]: 80; Plant response rating, Ryegrass, Italian [5, 14]: 70; Plant response rating, Barnyardgrass [6, 17]: 0; Barnyardgrass plant response rating [6, 10]: 40; Plant response rating, Barnyardgrass [6, 14]: 10; Plant response rating, Galium [7, 18]: 80; Galium plant response rating ([7]; 500 g ai/ha): 100; Plant response rating, Blackgrass [8, 18]: 50; Blackgrass plant response rating ([8]; 500 g ai/ha): 60
Cc1ccc2oc(C)c(-c3c(O)c(-c4ccccc4)nn(C)c3=O)c2c1 [Compound 61]	0	0	0	0	0	0	0	0	0	0	0	0	0	0	0	0	0	0	0	0	Plant response rating, Foxtail, Giant [1, 14]: 0; Plant response rating, Ragweed [2, 14]: 0; Plant response rating, Kochia (kochia (Kochia scoparia); [14]): 0; Plant response rating, Pigweed [4, 14]: 0; Plant response rating, Ryegrass, Italian [5, 14]: 0; Plant response rating, Barnyardgrass [6, 9]: 0; Barnyardgrass plant response rating [6, 10]: 0; Plant response rating, Barnyardgrass [6, 14]: 0; Plant response rating, Galium [7, 13]: 0; Galium plant response rating ([7]; 500 g ai/ha): 0; Plant response rating, Blackgrass [8, 13]: 0; Blackgrass plant response rating ([8]; 500 g ai/ha): 0
CCc1nn(CC)c(=O)c(-c2c(C)oc3ccc(C)cc23)c1O [Compound 64]	0	0	0	0	0	0	0	0	0	0	0	0	0	0	0	0	0	0	0	0	Plant response rating, Foxtail, Giant [1, 14]: 0; Plant response rating, Ragweed [2, 14]: 0; Plant response rating, Kochia (kochia (Kochia scoparia); [14]): 0; Plant response rating, Pigweed [4, 14]: 0; Plant response rating, Ryegrass, Italian [5, 14]: 0; Plant response rating, Barnyardgrass [6, 9]: 0; Barnyardgrass plant response rating [6, 10]: 0; Plant response rating, Barnyardgrass [6, 14]: 0; Plant response rating, Galium [7, 13]: 0; Galium plant response rating ([7]; 500 g ai/ha): 0; Plant response rating, Blackgrass [8, 13]: 0; Blackgrass plant response rating ([8]; 500 g ai/ha): 0
